# Assay results: patent US20210369753A1, “NUTRIENT COMPOSITION ABLE TO INHIBIT QUORUM SENSING” (Brilliant Lab LLC, priority 2020, published 2021)
# Where two headings read alike, the source gives them in different places.
# Assays:
# C. violaceum = conditions: cited from earlier work
# S. aureus = conditions: cited from earlier work
# P. aeruginosa = conditions: cited from earlier work
# P. fluorescens = conditions: cited from earlier work
# E. coli = E. coli O157:H7; cited from earlier work
# Acinetobacter = conditions: cited from earlier work
# Burkholderia = conditions: cited from earlier work
# C. violaceum (CV026) = assay: Violaceum assay (modified, butanol extraction); assay type: cell-based, Chromobacterium violaceum
# Method: SUMMARY OF METHODS: (+)-Catechin was used as a positive control in the halo and violaceum assays. Varying concentrations of the composition of EXAMPLE XI or catechin mixed with C. violaceum were added to an agar plate and the generated halo was analyzed both by visual inspection and measurement. Method for Violaceum assays included adding either the composition of EXAMPLE XI or catechin to a solution of C. violaceum (strain CV026). After workup, the solutions were transferred to a 96 well plate and optical density was recorded at 590 nm. Optical density values were normalized to unextracted samples as a control.
# Violaceum Assay: The violaceum assay was adapted from the method of Blosser, et al., Journal of Microbiological Methods 2000, 40, pp. 47-55. The model composition and Catechin were suspended/dissolved in ethanol. […] The OD600 of each culture was measured to be used to normalize violaceum levels to total biomass. […] The optical density was measured at 590 nm. The OD590 values were normalized to the biomass measurements determined for the unextracted samples.
# VIOLACEUM ASSAY: The Violaceum assay was performed to further corroborate the results obtained in the Halo assay and to provide a quantitative measure of activity. This assay is based on the same principles as for the Halo assay, but since the assay is performed in solution, violaceum production can be more readily quantified. […]
# [1] = tested on: Pseudomonas aeruginosa (ATCC 10145); assay: Pyocyanin assay; assay type: cell-based; conditions: overnight culture, test materials in DMSO and in ethanol
# S. aureus (ATCC 12600) = assay: Biofilm assay (crystal violet); assay type: cell-based, Staphylococcus aureus; conditions: 0.25-5 mg/mL, overnight, crystal violet OD 590 nm
# Method: (§1) Biofilm assay: The biofilm assay was based on the method of Chong, et al. (2011). The model composition and Catechin were prepared at 100 mg/mL in ethanol. Appropriate volumes of each were added to eight replicate wells of a v-well 96-well plate to result in 0.25, 0.5, 1.25 and 5 mg/mL final concentrations for a 200 microliter final volume. The plate was air dried until all of the ethanol has evaporated. From fresh overnight cultures of P. aeruginosa (ATCC 10145) and S. aureus (ATCC 12600), solutions at OD600 of 0.1 were prepared in Nutrient broth/0.5% glucose. Two hundred microliters of the cultures were added to all wells and mixed by pipetting. The plates were covered with breathable films and incubated overnight without shaking at 37 degrees C. The cultures were removed, and the plates rinsed several times with water. Two hundred microliters of 0.1% crystal violet was added to each well and incubated at room temperature for 30 minutes. […] One hundred microliters of the solubilized crystal violet was transferred to a flat-bottom polystyrene plate and the optical density measured at 590 nm.
# (§2) BIOFILM ASSAY: The composition of EXAMPLE XI was evaluated for anti-biofilm activity against Pseudomonas aeruginosa and Staphylococcus aureus. […]
# (§3) The plates were incubated statically overnight. […] The crystal violet was quantified by measuring the optical density at 590 nm.
# [2] = tested on: P. aeruginosa (ATCC 10145); assay: Biofilm assay (crystal violet); assay type: cell-based, Pseudomonas aeruginosa; conditions: 0.25-5 mg/mL, overnight, crystal violet OD 590 nm
# Method: as §1, §2, §3
# [3] = tested on: Chromobacterium violaceum (CV026); assay: Halo assay (anti-quorum sensing); assay type: cell-based; conditions: CV026 agar plate; for Catechin at the highest concentrations
# [4] = P. aeruginosa, strain not stated
molecule,measurement,setting,value
O=C(O)[C@H]1O[C@@H](Oc2cc3oc(-c4ccccc4)cc(=O)c3c(O)c2O)[C@H](O)[C@@H](O)[C@@H]1O [Baicalin],inhibition of quorum sensing,C. violaceum; C. violaceum CV026,inhibits quorum sensing
same,inhibition of quorum sensing,S. aureus,inhibits quorum sensing
O=C(/C=C/c1ccc(O)c(O)c1)O[C@@H]1C[C@](O)(C(=O)O)C[C@@H](O)[C@H]1O [Chlorogenic acid],inhibition of quorum sensing,P. aeruginosa; [4],inhibits quorum sensing
O=CC=Cc1ccccc1 [Cinnamaldehyde],inhibition of quorum sensing,P. aeruginosa; P. aeruginosa PAO1,inhibits quorum sensing
same,inhibition of quorum sensing,C. violaceum; C. violaceum CV026,inhibits quorum sensing
O=C(O[C@@H]1Cc2c(O)cc(O)cc2O[C@@H]1c1cc(O)c(O)c(O)c1)c1cc(O)c(O)c(O)c1 [EGCG],inhibition of quorum sensing,P. aeruginosa; [4],inhibits quorum sensing
COc1ccc([C@@H]2CC(=O)c3c(O)cc(O[C@@H]4O[C@H](CO[C@@H]5O[C@@H](C)[C@H](O)[C@@H](O)[C@H]5O)[C@@H](O)[C@H](O)[C@H]4O)cc3O2)cc1O [Hesperidin],inhibition of quorum sensing,P. fluorescens,inhibits quorum sensing
same,inhibition of quorum sensing,"C. violaceum; C. violaceum, strain not stated",inhibits quorum sensing
O=C1C[C@@H](c2ccc(O)cc2)Oc2cc(O)cc(O)c21 [Naringenin],inhibition of quorum sensing,P. aeruginosa; P. aeruginosa PAO1,inhibits quorum sensing
O=C(/C=C/c1ccc(O)c(O)c1)O[C@H](Cc1ccc(O)c(O)c1)C(=O)O [Rosmarinic acid],inhibition of quorum sensing,E. coli,inhibits quorum sensing
same,inhibition of quorum sensing,P. aeruginosa; P. aeruginosa PAO1,inhibits quorum sensing
same,inhibition of quorum sensing,C. violaceum; C. violaceum 31532,inhibits quorum sensing
same,inhibition of quorum sensing,C. violaceum; C. violaceum CV026,inhibits quorum sensing
C[S+]([O-])CCCCN=C=S (centres unmarked) [Sulforaphane],inhibition of quorum sensing,P. aeruginosa; [4],inhibits quorum sensing
O=C1OCC2OC(=O)c3cc(O)c(O)c(O)c3-c3c(O)c(O)c(O)c4c3C(=O)OC(C2OC(=O)c2cc(O)c(O)c(O)c2-c2c1cc(O)c(O)c2O)C1OC(=O)c2c-4c(O)c(O)c(O)c2C1O (centres unmarked) [Vescalagin],inhibition of quorum sensing,Acinetobacter,inhibits quorum sensing
same,inhibition of quorum sensing,Burkholderia,inhibits quorum sensing
same,inhibition of quorum sensing,P. aeruginosa; [4],inhibits quorum sensing
(+)-Catechin,inhibition of violaceum production (quorum sensing),"C. violaceum (CV026); highest concentration tested, 5 mg/mL, OD590 normalized to biomass",over 85%
same,inhibition of violaceum production,"C. violaceum (CV026); three lowest concentrations tested (1.25, 0.5 and 0.25 mg/mL)",10-25%
same,effect on pyocyanin production,[1],slightly enhances production
same,anti-biofilm activity,S. aureus (ATCC 12600),similar
same,anti-biofilm activity,[2],similar
same,bacterial growth in halo assay,[3],antibiotic effect inhibiting growth of the bacteria
